Reference: ChEMBL document CHEMBL1201862, “PubChem BioAssay data set” (2004)
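Step 1: Grow cells in 96-well plates. Step 2: Expose to compound for 48 hours at 5 concentrations. Step 3: Interpolate endpoints linearly; if unreached, use highest concentration. GI50 marks 50% less growth.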 Activity calls are given as the source filed them. Cut-off read from the data, not from the text of the source: active = GI50 up to about 1.1 µM and inactive = higher.

Experiments:
Assay in all cases: NCI anticancer screen, dose series, 48 h
[1] = test system: TK-10
[2] = test system: SNB-19
[3] = test system: RXF 393
[4] = test system: MCF7
[5] = test system: SK-MEL-2
[6] = test system: MOLT-4
[7] = test system: HOP-92
[8] = test system: K562
[9] = test system: Malme-3M
[10] = test system: SF-539
[11] = test system: ACHN
[12] = test system: MDA-N
[13] = test system: DU-145
[14] = test system: SF-295
[15] = test system: HCT-116
[16] = test system: NCI-H522
[17] = test system: A498
[18] = test system: M14
[19] = test system: UO-31

With `CC(C)CC(NC(=O)C(CI)Cc1ccccc1)C(=O)Nc1ccccc1` (stereo unspecified) the GI50 [1] was > 100 µM (inactive), the GI50 [2] was > 100 µM (inactive) and the GI50 [3] was > 100 µM (inactive). The GI50 [4] was > 100 µM (inactive), the GI50 [5] was > 100 µM (inactive) and the GI50 [6] was > 100 µM (inactive). For the same compound, the GI50 [7] was > 100 µM (inactive), the GI50 [8] was > 100 µM (inactive) and the GI50 [9] was > 100 µM (inactive). For the same compound, the GI50 [10] was > 100 µM (inactive), the GI50 [11] was > 100 µM (inactive) and the GI50 [12] was > 100 µM (inactive). For the same compound, the GI50 [13] was > 100 µM (inactive), the GI50 [14] was > 100 µM (inactive) and the GI50 [15] was > 100 µM (inactive). The GI50 [16] was > 100 µM (inactive), the GI50 [17] was > 100 µM (inactive) and the GI50 [18] was > 100 µM (inactive). For the same compound, the GI50 [19] was > 100 µM (inactive).
In the case of `COc1ccc2c(c1)CC[C@@H]1[C@@H]2CC[C@]2(C)C(=O)/C(=C/c3ccncc3)C[C@@H]12`, the GI50 [1] is reported as 30.6 µM (inactive), the GI50 [2] is reported as 44.3 µM (inactive) and the GI50 [3] is reported as 18.2 µM (inactive). The GI50 [4] was 61.4 µM (inactive), the GI50 [5] was 22.5 µM (inactive) and the GI50 [6] was > 100 µM (inactive). The GI50 [7] was 27.9 µM (inactive), the GI50 [8] was > 100 µM (inactive) and the GI50 [9] was 25.8 µM (inactive). The GI50 [10] was 25.5 µM (inactive), the GI50 [11] was 42.5 µM (inactive) and the GI50 [12] was 42.6 µM (inactive). The GI50 [13] was 38.8 µM (inactive), the GI50 [14] was 22.4 µM (inactive) and the GI50 [15] was 28.2 µM (inactive). For the same compound, the GI50 [16] was 30.4 µM (inactive), the GI50 [17] was 27.3 µM (inactive) and the GI50 [18] was 31.7 µM (inactive). For the same compound, the GI50 [19] was 37.2 µM (inactive).
With `COC(=O)C(CCC(=O)CCl)N1C(=O)c2ccccc2C1=O` (stereo unspecified) the GI50 [1] was 14.5 µM (inactive), the GI50 [2] was 18.7 µM (inactive) and the GI50 [3] was 2.39 µM (inactive). The GI50 [4] was 4.57 µM (inactive), the GI50 [5] was 6.9 µM (inactive) and the GI50 [6] was 2.38 µM (inactive). The GI50 [7] was 5.78 µM (inactive), the GI50 [8] was 2.38 µM (inactive) and the GI50 [9] was 4.57 µM (inactive). The GI50 [10] was 12.2 µM (inactive), the GI50 [11] was 13.3 µM (inactive) and the GI50 [12] was 7.43 µM (inactive). For the same compound, the GI50 [13] was 16.9 µM (inactive), the GI50 [14] was 17.7 µM (inactive) and the GI50 [15] was 5.07 µM (inactive). For the same compound, the GI50 [16] was 1.73 µM (inactive), the GI50 [17] was 19.5 µM (inactive) and the GI50 [18] was 5.27 µM (inactive). The GI50 [19] was 14.4 µM (inactive).
With `CCN(CC)CC/N=c1\c2cc(OC)ccc2[nH]c2c([N+](=O)[O-])ccc(NCCN(CC)CC)c12` the GI50 [1] was 2.11 µM (inactive), the GI50 [2] was 0.794 µM (active) and the GI50 [3] was 1.26 µM (inactive). The GI50 [4] was 0.698 µM (active), the GI50 [5] was 2.06 µM (inactive) and the GI50 [6] was 0.198 µM (active). For the same compound, the GI50 [7] was 1.83 µM (inactive), the GI50 [8] was 0.306 µM (active) and the GI50 [9] was 1.82 µM (inactive). For the same compound, the GI50 [10] was 1.06 µM (active), the GI50 [11] was 2.78 µM (inactive) and the GI50 [12] was 1.12 µM (inactive). The GI50 [13] was 2.37 µM (inactive), the GI50 [14] was 1.26 µM (inactive) and the GI50 [15] was 0.853 µM (active). For the same compound, the GI50 [16] was 1.14 µM (inactive), the GI50 [17] was 2.3 µM (inactive) and the GI50 [18] was 2.88 µM (inactive). For the same compound, the GI50 [19] was 1.17 µM (inactive).
